Test results: patent US20040213757A1, “Water soluble wortmannin derivatives” (Wyeth Holdings Corporation, priority 2003, published 2004)
pIC50: −log10 of the molar value. Converted amounts (≈) assume the structure as drawn.

Columns and labels:
U87MG glioblastoma = conditions: for Tumor Volume t/c, day 0 / Tumor Volume, mean, day 0 / Tumor Volume t/c, day 4 / Tumor Volume, mean, day 4 / Tumor Volume t/c, day 7 / Tumor Volume, mean, day 7 / Tumor Volume t/c, day 11 / Tumor Volume, mean, day 11 / Tumor Volume t/c, day 14 / Tumor Volume, mean, day 14 / Tumor Volume t/c, day 17 / Tumor Volume, mean, day 17: 0.7 mg/kg IV, d 0-4
Method: A tumor cell line for brain tumor, PTEN (−/−) U87MG Glioma was implanted in mice. The mice were dosed IV on days 0-4.
In this experiment, U87MG glioma growing as subcutaneous xenografts in nude mice were staged on day 0, and dosed on days 0-4 at 0.15, 0.5, 1.5, 5 and 15 mg/kg/dose of a wortmannin derivative of this invention.
In the U87MG glioma study shown in FIG. 3, a wortmannin derivative of this invention was dosed IV on days 0-4. Paclitaxel was dosed IP on days 0 and 7. The MTD of paclitaxel is 60 mg/kg/dose following a weekly dosing schedule. Mice were treated with a wortmannin derivative of this invention at 1 mg/kg/dose, paclitaxel at 30 and 60 mg/kg/dose, or treated in combination with a wortmannin derivative of this invention at 1 mg/kg/dose and paclitaxel at 30 mg/kg/dose.
A wortmannin derivative at 1 mg/kg/dose and Peg-rapa at 0.1 mg/kg/dose were dosed IV either alone or in combination on days 0-4.
Balb/c nu/nu (athymic) mice were housed in accordance with Association for Accreditation of Laboratory Animal Care (AALAACC) standards for at least one week prior to their experimental usage. The animals were housed in microisolator cages and handled only in a laminar flow hood. All food and water was autoclaved. Mice were inoculated on the left flank with a volume of 200 μL using a 25-26 gauge sterile needle and syringe with a suspension of cells. The cells were resuspended in full growth media and delivered at 10 million cells per mouse. When the resulting tumors reached the appropriate size for staging, the mice were regrouped to produce equivalent sized groups with n=10. Once staged, the mice were dosed 0.2 cc iv with the water-soluble drug-polymer conjugate II and water-soluble drug-polymer conjugate IV resuspended in sterile, distilled water. Wortmannin and other non-pegylated water-soluble drug-polymer conjugate were prepared 10 mg/ml in Dimethyl sulfoxide (DMSO) and diluted with Phosphate Buffered Saline (PBS) right before injecting into the mouse. Treatment was administered as a daily×5 dosing schedule repeated every 2 weeks until the tumors reach 10% of the animal's weight. The growth of the solid tumor was monitored twice a week for the duration of the experiment. Tumor size was quantitated using sliding vernier calipers and the mass was calculated using the formula […]. Conversion from cubic mm to mg was made assuming unit density. Tumors were not allowed to grow larger than 15% of the mouse's weight, at which point the mouse was euthanized.

[1] = system: A549 (human non-small cell lung cancer); experiment: Thymidine incorporation proliferation assay, A549; type: cell-based; conditions: three days of treatment
Method: (§1) A549 (human non-small cell lung cancer) and H-157 cell lines were purchased from American Type Culture Collection (ATCC) (Rockville, Md.). Cells were cultured in RPMI Medium 1640 containing 10% fetal bovine serum (FBS) in a 37° C. incubator containing 5% CO2. All cell culture reagents were purchased from Gibco-BRL (Grand Island, N.Y.). Cells were plated in 96-well culture plates at about 3000 cells per well. One day following plating, water-soluble drug-polymer conjugates or the vehicle controls were added to cells. Proliferation assays were performed three days post initiation of treatment. For the non-radioactive cell proliferation assay, viable cell densities were determined by measuring metabolic conversion (by viable cells) of the dye MTS tatrazolium dye, a cell proliferation assay known by one of skill in the art (MTS assay), a previously established cell proliferation assay. The assay was performed using assay kit purchased from Promega Corp. (Madison, Wis.). The assay plates were incubated for 1-2 hours and the results were read in a 96-well format plate reader by measuring absorbance at 490 nm. For the thymidine incorporation assay, cells were labeled with [methyl-^3H]-thymidine (PerkinElmer Life Sciences, Boston, Mass.) for 5 hours. Cells were then harvested onto glass-fiber filter membranes and counted in a Wallac 1205 Betaplate liquid scintillation counter. Effect of each drug treatment was calculated as a percentage of control cell growth obtained from vehicle-treated cells grown in the same plate.

[2] = system: A549 (human non-small cell lung cancer); experiment: MTS cell proliferation assay, A549; type: cell-based; conditions: three days of treatment
Method: as §1

H-157 [3] = experiment: Thymidine incorporation proliferation assay, H-157; type: cell-based, human; conditions: three days of treatment
Method: as §1

H-157 [4] = experiment: MTS cell proliferation assay, H-157; type: cell-based, human; conditions: three days of treatment
Method: as §1

C3H mammary model = conditions: cited from earlier work
PI3K = conditions: cited from earlier work

Row | Compound | Tumor Volume t/c, day 0 (U87MG glioblastoma) | Tumor Volume, mean, day 0 (U87MG glioblastoma) [mm^3] | Tumor Volume t/c, day 4 (U87MG glioblastoma) | Tumor Volume, mean, day 4 (U87MG glioblastoma) [mm^3] | Tumor Volume t/c, day 7 (U87MG glioblastoma) | Tumor Volume, mean, day 7 (U87MG glioblastoma) [mm^3] | Tumor Volume t/c, day 11 (U87MG glioblastoma) | Tumor Volume, mean, day 11 (U87MG glioblastoma) [mm^3] | Tumor Volume t/c, day 14 (U87MG glioblastoma) | Tumor Volume, mean, day 14 (U87MG glioblastoma) [mm^3] | Tumor Volume t/c, day 17 (U87MG glioblastoma) | Tumor Volume, mean, day 17 (U87MG glioblastoma) [mm^3] | Thymidine Assay IC50, A549 [1] [µg/mL] | MTS Assay IC50, A549 [2] [µg/mL] | Thymidine Assay IC50, H-157 (H-157 [3]) [µg/mL] | MTS Assay IC50, H-157 (H-157 [4]) [µg/mL] | other results
1 | CC(=O)O[C@H]1C(=O)[C@@]2(C)[C@H]([C@H](OC(=O)c3ccccc3)[C@]3(O)C[C@H](OC(=O)[C@H](O)[C@@H](NC(=O)c4ccccc4)c4ccccc4)C(C)=C1C3(C)C)[C@]1(OC(C)=O)CO[C@@H]1C[C@@H]2O [paclitaxel, reference compound] | – | – | – | – | – | – | – | – | – | – | – | – | – | – | – | – | MTD of paclitaxel (U87MG glioblastoma; mouse, in vivo, ip): 60 mg/kg/dose
2 | Conjugate (IV) of M-PEG-SH 5000 and 11-desacetyl-11-(1-iodoacetyl)-wortmannin [Water-soluble drug-polymer conjugate IV] | 0.97 | 131.0 | 0.58 | 165.0 | 0.46 | 147.9 | 0.60 | 349.0 | 0.64 | 707.4 | 0.69 | 1454.9 | >3 | >3 | >3 | >3 | –
3 | COCC1OC(=O)c2coc3c2C1(C)C1=C(C3=O)C2CCC(O)C2(C)CC1OC(C)=O (stereo not drawn) [17β-Hydroxywortmannin] | – | – | – | – | – | – | – | – | – | – | – | – | – | – | – | – | antitumor activity in the C3H mammary model (C3H mammary model; dose of 0.5 mg/kg): no inhibition; toxicity in the C3H mammary model (C3H mammary model; dose of 1.0 mg/kg): toxicity; increase in activity relative to wortmannin (PI3K; PI3K): 10 fold; pIC50 (PI3K): 9.30
4 | COC[C@H]1OC(=O)c2coc3c2[C@@]1(C)C1=C(C3=O)[C@@H]2CCC(=O)[C@@]2(C)C[C@H]1OC(C)=O [Wortmannin] | – | – | – | – | – | – | – | – | – | – | – | – | – | – | – | – | IC50 ([1]; Homo sapiens, 72 h): 2.5 µg/mL (≈ 5.84 µM); IC50 ([2]; Homo sapiens, 72 h): 9 µg/mL (≈ 21 µM); IC50 (H-157 [3]; Homo sapiens, NCI-H157, 72 h): 3.2 µg/mL (≈ 7.47 µM); IC50 (H-157 [4]; Homo sapiens, NCI-H157, 72 h): 10 µg/mL (≈ 23.3 µM)
5 | Conjugate (III) of M-PEG-SH 5000 and 17-dihydro-17-(1-iodoacetyl)-wortmannin [Water-soluble drug-polymer conjugate III] | 1.01 | 137.4 | 0.51 | 144.0 | 0.37 | 120.2 | 0.51 | 300.2 | 0.50 | 547.0 | 0.44 | 926.8 | >3 | >3 | >3 | >3 | –
